Legend:
Experiment in all cases: cells
Type in all cases: functional, cell-based, Homo sapiens
KNS-81-FD = settings: Homo sapiens, KNS-81-FD;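 further: growth inhibition of KNS-81-FD cells, read out with a cell viability assay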
Description: SANGER: Inhibition of human KNS-81-FD cell growth in a cell viability assay.

SNU1 = settings: Homo sapiens, SNU1;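 further: growth inhibition of human NCI-SNU-1 cells, measured with a cell viability assay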
Description: SANGER: Inhibition of human NCI-SNU-1 cell growth in a cell viability assay.

COLO-668 = settings: Homo sapiens, COLO-668
Description: SANGER: Inhibition of human COLO-668 cell growth in a cell viability assay.

VA-ES-BJ = settings: Homo sapiens, VA-ES-BJ;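 further: growth inhibition of the VA-ES-BJ cell line, read out by a cell viability assay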
Description: SANGER: Inhibition of human VA-ES-BJ cell growth in a cell viability assay.

BB49-HNC = settings: Homo sapiens, BB49-HNC;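 further: cell viability assay read-out, reported as inhibition of BB49-HNC cell growth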
Description: SANGER: Inhibition of human BB49-HNC cell growth in a cell viability assay.

KLE = settings: Homo sapiens, KLE;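 further: growth inhibition of human KLE cells, read out with a cell viability assay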
Description: SANGER: Inhibition of human KLE cell growth in a cell viability assay.

TE-12 = settings: Homo sapiens, TE-12;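 further: growth inhibition of TE-12 cells, read out by a cell viability assay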
Description: SANGER: Inhibition of human TE-12 cell growth in a cell viability assay.

COLO-684 = settings: Homo sapiens, COLO-684
Description: SANGER: Inhibition of human COLO-684 cell growth in a cell viability assay.

COLO-800 = settings: Homo sapiens, COLO-800;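 further: growth inhibition of COLO-800 cells, read out with a cell viability assay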
Description: SANGER: Inhibition of human COLO-800 cell growth in a cell viability assay.

SW982 = settings: Homo sapiens, SW982;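 further: growth inhibition of SW982 cells, read out with a cell viability assay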
Description: SANGER: Inhibition of human SW982 cell growth in a cell viability assay.

CP66-MEL = settings: Homo sapiens, CP66-MEL;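 further: growth inhibition of CP66-MEL cells determined in a cell viability assay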
Description: SANGER: Inhibition of human CP66-MEL cell growth in a cell viability assay.

NCI-H510A = settings: Homo sapiens, NCI-H510A;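 further: growth inhibition of NCI-H510A cells, read out with a cell viability assay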
Description: SANGER: Inhibition of human NCI-H510A cell growth in a cell viability assay.

RPMI-8866 = settings: Homo sapiens, RPMI-8866
Description: SANGER: Inhibition of human RPMI-8866 cell growth in a cell viability assay.

DSH1 = settings: Homo sapiens, DSH1;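 further: growth inhibition of human DSH1 cells, measured with a cell viability readout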
Description: SANGER: Inhibition of human DSH1 cell growth in a cell viability assay.

TGBC24TKB = settings: Homo sapiens, TGBC24TKB;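 further: growth inhibition of human TGBC24TKB cells, read out with a cell viability assay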
Description: SANGER: Inhibition of human TGBC24TKB cell growth in a cell viability assay.

ES7 = settings: Homo sapiens, ES7;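 further: growth inhibition of cultured human ES7 cells, read out as cell viability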
Description: SANGER: Inhibition of human ES7 cell growth in a cell viability assay.

no-11 = settings: Homo sapiens;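 further: growth inhibition of human NO-11 cells, read out with a cell viability assay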
Description: SANGER: Inhibition of human no-11 cell growth in a cell viability assay.

SNB-75 = settings: Homo sapiens, SNB-75;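 further: cell viability assay measuring growth inhibition of human SNB-75 cells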
Description: SANGER: Inhibition of human SNB75 cell growth in a cell viability assay.

ML-2 = settings: Homo sapiens, ML-2;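 further: growth inhibition of ML-2 cells, measured with a cell viability readout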
Description: SANGER: Inhibition of human ML-2 cell growth in a cell viability assay.

SCC-15 = settings: Homo sapiens, SCC-15;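 further: growth inhibition of SCC-15 cells, read out with a cell viability assay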
Description: SANGER: Inhibition of human SCC-15 cell growth in a cell viability assay.

LS-123 = settings: Homo sapiens, LS-123
Description: SANGER: Inhibition of human LS-123 cell growth in a cell viability assay.

HDLM-2 = settings: Homo sapiens, HDLM-2;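 further: cell viability assay measuring suppression of HDLM-2 proliferation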
Description: SANGER: Inhibition of human HDLM-2 cell growth in a cell viability assay.

EC-GI-10 = settings: Homo sapiens, EC-GI-10
Description: SANGER: Inhibition of human EC-GI-10 cell growth in a cell viability assay.

EW-18 = settings: Homo sapiens, EW-18;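 further: growth inhibition of EW-18 cells, read out by a cell viability assay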
Description: SANGER: Inhibition of human EW-18 cell growth in a cell viability assay.

NCI-H1648 = settings: Homo sapiens, NCI-H1648;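 further: cell viability assay measuring inhibition of NCI-H1648 cell growth, from the Sanger screening data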
Description: SANGER: Inhibition of human NCI-H1648 cell growth in a cell viability assay.

GB-1 = settings: Homo sapiens, GB-1;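 further: growth of GB-1 cells judged by a viability assay, IC50 marks the concentration inhibiting growth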
Description: SANGER: Inhibition of human GB-1 cell growth in a cell viability assay.

697 = settings: Homo sapiens
Description: SANGER: Inhibition of human 697 cell growth in a cell viability assay.

LXF-289 cell line = settings: Homo sapiens, LXF-289
Description: SANGER: Inhibition of human LXF-289 cell growth in a cell viability assay.

NKM-1 = settings: Homo sapiens, NKM-1;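 further: growth inhibition of NKM-1 cells, read out with a cell viability assay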
Description: SANGER: Inhibition of human NKM-1 cell growth in a cell viability assay.

ONS-76 = settings: Homo sapiens, ONS-76;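 further: growth inhibition of human ONS-76 cells, read out with a cell viability assay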
Description: SANGER: Inhibition of human ONS-76 cell growth in a cell viability assay.

SF-126 = settings: Homo sapiens, SF-126;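 further: growth inhibition of human SF126 cells, read out with a cell viability assay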
Description: SANGER: Inhibition of human SF126 cell growth in a cell viability assay.

EOL1 = settings: Homo sapiens, EOL1;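 further: growth inhibition of EoL-1 cells, read out by a cell viability assay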
Description: SANGER: Inhibition of human EoL-1-cell cell growth in a cell viability assay.

ES1 = settings: Homo sapiens, ES1;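 further: growth inhibition of ES1 cells, read out with a cell viability assay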
Description: SANGER: Inhibition of human ES1 cell growth in a cell viability assay.

SK-UT-1 = settings: Homo sapiens, SK-UT-1;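 further: growth inhibition of SK-UT-1 cells, measured by a cell viability assay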
Description: SANGER: Inhibition of human SK-UT-1 cell growth in a cell viability assay.

U-266 = settings: Homo sapiens, U-266
Description: SANGER: Inhibition of human U-266 cell growth in a cell viability assay.

TGBC1TKB = settings: Homo sapiens, TGBC1TKB;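 further: growth inhibition of TGBC1TKB cells, read out by a cell viability assay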
Description: SANGER: Inhibition of human TGBC1TKB cell growth in a cell viability assay.

GT3TKB = settings: Homo sapiens, GT3TKB;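 further: growth inhibition of the cell line, read out with a cell viability assay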
Description: SANGER: Inhibition of human GT3TKB cell growth in a cell viability assay.

SW872 = settings: Homo sapiens, SW872;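 further: growth inhibition of SW872 cells, read out by a viability assay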
Description: SANGER: Inhibition of human SW872 cell growth in a cell viability assay.

MHH-NB-11 = settings: Homo sapiens, MHH-NB-11;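 further: growth inhibition of human MHH-NB-11 cells, read out by a cell viability assay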
Description: SANGER: Inhibition of human MHH-NB-11 cell growth in a cell viability assay.

A253 cell line = settings: Homo sapiens, A253;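 further: growth inhibition of A253 cells, read out with a cell viability assay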
Description: SANGER: Inhibition of human A253 cell growth in a cell viability assay.

KMOE-2 = settings: Homo sapiens, KMOE-2;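 further: growth inhibition of human KMOE-2 cells, read out with a cell viability assay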
Description: SANGER: Inhibition of human KMOE-2 cell growth in a cell viability assay.

LAN-6 = settings: Homo sapiens, LAN-6;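 further: growth inhibition of LAN-6 cells, determined with a cell viability assay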
Description: SANGER: Inhibition of human LAN-6 cell growth in a cell viability assay.

COLO-829 = settings: Homo sapiens, COLO-829
Description: SANGER: Inhibition of human COLO-829 cell growth in a cell viability assay.

MHH-PREB-1 = settings: Homo sapiens, MHH-PREB-1;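 further: cell viability assay measuring inhibition of proliferation of human MHH-PREB-1 cells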
Description: SANGER: Inhibition of human MHH-PREB-1 cell growth in a cell viability assay.

TE-8 = settings: Homo sapiens, TE-8;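 further: growth inhibition of TE-8 cells, measured with a cell viability readout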
Description: SANGER: Inhibition of human TE-8 cell growth in a cell viability assay.

LB1047-RCC = settings: Homo sapiens, LB1047-RCC;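 further: inhibition of cell growth, determined with a cell viability assay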
Description: SANGER: Inhibition of human LB1047-RCC cell growth in a cell viability assay.

NB69 = settings: Homo sapiens, NB69;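 further: growth inhibition of NB69 cells, determined by a cell viability assay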
Description: SANGER: Inhibition of human NB69 cell growth in a cell viability assay.

CTV-1 = settings: Homo sapiens, CTV-1;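 further: growth inhibition of the cell line, read out with a cell viability assay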
Description: SANGER: Inhibition of human CTV-1 cell growth in a cell viability assay.

CCRF-CEM = settings: Homo sapiens, CCRF-CEM;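 further: inhibition of CCRF-CEM cell growth, measured by a cell viability assay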
Description: SANGER: Inhibition of human CCRF-CEM cell growth in a cell viability assay.

For `N#Cc1c(O)c2c(-c3ccc(-c4ccccc4O)cc3)csc2[nH]c1=O`, the IC50 (KNS-81-FD) was > 1.02 µM, the IC50 (SNU1) was 0.311 µM and the IC50 (COLO-668) was > 1.02 µM. The IC50 (VA-ES-BJ) was > 1.02 µM, the IC50 (BB49-HNC) was > 1.02 µM and the IC50 (KLE) was > 1.02 µM. The IC50 (TE-12) was > 1.02 µM, the IC50 (COLO-684) was 0.303 µM and the IC50 (COLO-800) was > 1.02 µM. The IC50 (SW982) was > 1.02 µM, the IC50 (CP66-MEL) was > 1.02 µM and the IC50 (NCI-H510A) was 0.692 µM. For the same molecule, the IC50 (RPMI-8866) was > 1.02 µM, the IC50 (DSH1) was > 1.02 µM and the IC50 (TGBC24TKB) was > 1.02 µM. The IC50 (ES7) was > 1.02 µM, the IC50 (no-11) was > 1.02 µM and the IC50 (SNB-75) was > 1.02 µM. For the same molecule, the IC50 (ML-2) was 0.0434 µM, the IC50 (SCC-15) was > 1.02 µM and the IC50 (LS-123) was > 1.02 µM. The IC50 (HDLM-2) was 0.136 µM, the IC50 (EC-GI-10) was > 1.02 µM and the IC50 (EW-18) was 0.451 µM. For the same molecule, the IC50 (NCI-H1648) was > 1.02 µM, the IC50 (GB-1) was > 1.02 µM and the IC50 697 was > 1.02 µM. The IC50 (LXF-289 cell line) was > 1.02 µM, the IC50 (NKM-1) was > 1.02 µM and the IC50 (ONS-76) was > 1.02 µM. For the same molecule, the IC50 (SF-126) was > 1.02 µM, the IC50 (EOL1) was 0.0956 µM and the IC50 (ES1) was > 1.02 µM. The IC50 (SK-UT-1) was > 1.02 µM, the IC50 (U-266) was 0.405 µM and the IC50 (TGBC1TKB) was > 1.02 µM. For the same molecule, the IC50 (GT3TKB) was > 1.02 µM, the IC50 (SW872) was > 1.02 µM and the IC50 (MHH-NB-11) was 0.323 µM. For the same molecule, the IC50 (A253 cell line) was > 1.02 µM, the IC50 (KMOE-2) was 0.397 µM and the IC50 (LAN-6) was > 1.02 µM. For the same molecule, the IC50 (COLO-829) was > 1.02 µM, the IC50 (MHH-PREB-1) was 0.182 µM and the IC50 (TE-8) was > 1.02 µM. For the same molecule, the IC50 (LB1047-RCC) was > 1.02 µM, the IC50 (NB69) was 0.686 µM and the IC50 (CTV-1) was 0.073 µM. The IC50 (CCRF-CEM) was 0.146 µM.

With `CC[C@H](CO)Nc1nc(NCc2ccccc2)c2ncn(C(C)C)c2n1` [SELICICLIB] the IC50 (KNS-81-FD) was > 16 µM, the IC50 (SNU1) was > 16 µM and the IC50 (COLO-668) was > 16 µM. The IC50 (VA-ES-BJ) was > 16 µM, the IC50 (BB49-HNC) was > 16 µM and the IC50 (TE-12) was > 16 µM. The IC50 (COLO-684) was > 16 µM, the IC50 (COLO-800) was > 16 µM and the IC50 (CP66-MEL) was > 16 µM. For the same molecule, the IC50 (NCI-H510A) was > 16 µM, the IC50 (RPMI-8866) was > 16 µM and the IC50 (DSH1) was > 16 µM. The IC50 (ES7) was > 16 µM, the IC50 (no-11) was > 16 µM and the IC50 (SNB-75) was > 16 µM. The IC50 (ML-2) was > 16 µM, the IC50 (SCC-15) was > 16 µM and the IC50 (LS-123) was > 16 µM. The IC50 (HDLM-2) was > 16 µM, the IC50 (EC-GI-10) was > 16 µM and the IC50 (EW-18) was > 16 µM. The IC50 (NCI-H1648) was > 16 µM, the IC50 (GB-1) was > 16 µM and the IC50 697 was 12.6 µM. For the same molecule, the IC50 (LXF-289 cell line) was > 16 µM, the IC50 (NKM-1) was > 16 µM and the IC50 (ONS-76) was > 16 µM. For the same molecule, the IC50 (SF-126) was > 16 µM, the IC50 (EOL1) was > 16 µM and the IC50 (ES1) was > 16 µM. The IC50 (SK-UT-1) was 10.3 µM, the IC50 (U-266) was > 16 µM and the IC50 (TGBC1TKB) was > 16 µM. The IC50 (GT3TKB) was > 16 µM, the IC50 (SW872) was > 16 µM and the IC50 (MHH-NB-11) was > 16 µM. For the same molecule, the IC50 (A253 cell line) was > 16 µM, the IC50 (KMOE-2) was > 16 µM and the IC50 (LAN-6) was > 16 µM. For the same molecule, the IC50 (COLO-829) was > 16 µM, the IC50 (MHH-PREB-1) was > 16 µM and the IC50 (TE-8) was > 16 µM. The IC50 (LB1047-RCC) was > 16 µM, the IC50 (NB69) was > 16 µM and the IC50 (CTV-1) was > 16 µM. For the same molecule, the IC50 (CCRF-CEM) was > 16 µM.

Source: ChEMBL document CHEMBL1201861, “Genomics of Drug Sensitity in Cancer screening data, Wellcome Trust Sanger Institute”
